ChEMBL document CHEMBL1649320, “Development of daptomycin nonsusceptibility with heterogeneous vancomycin-intermediate resistance and oxacillin susceptibility in methicillin-resistant Staphylococcus aureus during high-dose daptomycin treatment” (2010)
Converted amounts (≈) assume the structure as drawn.

Experiments:
Assay type in all cases: functional
Staphylococcus aureus [1] = assay: Antimicrobial activity against methicillin-resistant Staphylococcus aureus CGK6 by Etest method
Staphylococcus aureus [2] = assay: Antimicrobial activity against methicillin-resistant Staphylococcus aureus CGK8 by Etest method
Staphylococcus aureus [3] = assay: Antimicrobial activity against methicillin-resistant Staphylococcus aureus CGK1 by Etest method
Staphylococcus aureus [4] = assay: Antimicrobial activity against methicillin-resistant Staphylococcus aureus CGK2 by Etest method
Staphylococcus aureus [5] = assay: Antimicrobial activity against methicillin-resistant Staphylococcus aureus CGK3 by Etest method
Staphylococcus aureus [6] = assay: Antimicrobial activity against methicillin-resistant Staphylococcus aureus CGK4 by Etest method
Staphylococcus aureus [7] = assay: Antimicrobial activity against methicillin-resistant Staphylococcus aureus CGK5 by Etest method
Staphylococcus aureus [8] = assay: Antimicrobial activity against methicillin-resistant Staphylococcus aureus CGK7 by Etest method

Row | SMILES | MIC (Staphylococcus aureus [1]) [µg/mL] | MIC (Staphylococcus aureus [2]) [µg/mL] | MIC (Staphylococcus aureus [3]) [µg/mL] | MIC (Staphylococcus aureus [4]) [µg/mL] | MIC (Staphylococcus aureus [5]) [µg/mL] | MIC (Staphylococcus aureus [6]) [µg/mL] | MIC (Staphylococcus aureus [7]) [µg/mL] | MIC (Staphylococcus aureus [8]) [µg/mL]
1 | CC(=O)NC[C@H]1CN(c2ccc(N3CCOCC3)c(F)c2)C(=O)O1 [LINEZOLID] | 1 (≈ 2.96 µM) | 1.5 (≈ 4.45 µM) | – | – | – | – | – | –
2 | CCCCCCCCCC(=O)N[C@@H](Cc1c[nH]c2ccccc12)C(=O)N[C@H](CC(N)=O)C(=O)N[C@@H](CC(=O)O)C(=O)N[C@@H]1C(=O)NCC(=O)N[C@@H](CCCN)C(=O)N[C@@H](CC(=O)O)C(=O)N[C@H](C)C(=O)N[C@@H](CC(=O)O)C(=O)NCC(=O)N[C@H](CO)C(=O)N[C@@H]([C@H](C)CC(=O)O)C(=O)N[C@@H](CC(=O)c2ccccc2N)C(=O)O[C@@H]1C | 4 (≈ 2.47 µM) | 4 (≈ 2.47 µM) | 0.5 (≈ 0.309 µM) | 0.75 (≈ 0.463 µM) | 0.75 (≈ 0.463 µM) | 0.38 (≈ 0.234 µM) | 0.75 (≈ 0.463 µM) | 4 (≈ 2.47 µM)
3 | CC(=O)N[C@@H]1[C@H](Oc2c3cc4cc2Oc2ccc(cc2Cl)[C@@H](O[C@@H]2O[C@@H](CO)[C@@H](O)[C@H](O)[C@@H]2NC(C)=O)[C@@H]2NC(=O)[C@H](NC(=O)[C@@H]4NC(=O)[C@H]4NC(=O)[C@@H](Cc5ccc(c(Cl)c5)O3)NC(=O)[C@H](N)c3ccc(O)c(c3)Oc3cc(O)cc4c3)c3ccc(O)c(c3)-c3c(O[C@H]4O[C@H](CO)[C@@H](O)[C@@H](O)[C@@H]4O)cc(O)cc3[C@@H](C(=O)O)NC2=O)O[C@@H](CO)[C@@H](O)[C@@H]1O | 2 (≈ 1.13 µM) | 2 (≈ 1.13 µM) | 1 (≈ 0.566 µM) | 1.5 (≈ 0.849 µM) | 1.5 (≈ 0.849 µM) | 1 (≈ 0.566 µM) | 2 (≈ 1.13 µM) | 3 (≈ 1.7 µM)
4 | CN[C@H](CC(C)C)C(=O)N[C@H]1C(=O)N[C@@H](CC(N)=O)C(=O)N[C@H]2C(=O)N[C@H]3C(=O)N[C@H](C(=O)N[C@H](C(=O)O)c4cc(O)cc(O)c4-c4cc3ccc4O)[C@H](O)c3ccc(c(Cl)c3)Oc3cc2cc(c3O[C@@H]2O[C@H](CO)[C@@H](O)[C@H](O)[C@H]2O[C@H]2C[C@](C)(N)[C@H](O)[C@H](C)O2)Oc2ccc(cc2Cl)[C@H]1O [VANCOMYCIN] | – | – | 1.5 (≈ 1.04 µM) | 1.5 (≈ 1.04 µM) | – | 1.5 (≈ 1.04 µM) | – | 3 (≈ 2.07 µM)
5 | Cc1onc(-c2ccccc2)c1C(=O)N[C@@H]1C(=O)N2[C@@H]1SC(C)(C)[C@@H]2C(=O)O [OXACILLIN] | 1.5 (≈ 3.74 µM) | 1 (≈ 2.49 µM) | 32 (≈ 79.7 µM) | > 256 | > 256 | 16 (≈ 39.9 µM) | > 256 | 3 (≈ 7.47 µM)
